Tests used:
[1] = biological target: c-Jun N-terminal kinase 1 α1 (JNK1 α1) (Homo sapiens, UniProt P45983); details: 20 μM; cited from earlier work
[2] = test system: HDM-exposed mice; assay: House dust mite (HDM) sensitized asthma model
Method: House dust mite (HDM) is one of the most common aeroallergens and is implicated in allergy and asthma symptoms in ˜10% of the population (Johnson et al., “Continuous exposure to house dust mite elicits chronic airway inflammation and structural remodeling.” Am J Respir Crit Care Med 169:378-385 (2004)). Exposure to HDM extract elicits a severe and persistent eosinophilic airway inflammation. Mice were exposed to purified HDM extract (Greer Laboratories, Lenoir, N.C.) intranasally (25 μg of protein in 10 μl saline) for 5 days/week for 3 weeks as previously described (Id.). […] Changes in pressure, flow, and volume were recorded, and airway resistance was calculated from peak values after each challenge using a Buxco forced maneuvers system and restrained whole body plethysmography (rWBP; PLY3011 chamber, Buxco (BUXCO Electronics Inc., Troy, N.Y.)).

Sequence of c-Jun N-terminal kinase 1 α1 (JNK1 α1) (P45983 1-384 isoform P45983-2, species assumed): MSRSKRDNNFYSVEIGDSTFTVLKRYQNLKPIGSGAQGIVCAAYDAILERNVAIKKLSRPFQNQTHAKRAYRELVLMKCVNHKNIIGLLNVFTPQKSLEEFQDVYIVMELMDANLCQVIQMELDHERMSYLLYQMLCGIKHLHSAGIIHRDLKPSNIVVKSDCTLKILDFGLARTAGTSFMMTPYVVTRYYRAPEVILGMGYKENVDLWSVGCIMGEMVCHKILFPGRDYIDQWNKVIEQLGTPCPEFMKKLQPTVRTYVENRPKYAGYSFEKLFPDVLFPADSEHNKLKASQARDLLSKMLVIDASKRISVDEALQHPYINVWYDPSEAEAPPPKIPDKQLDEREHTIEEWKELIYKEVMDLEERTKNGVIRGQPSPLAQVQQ

CC(=O)c1c(O)c(C)c(O)c(Cc2c(O)c3c(c(C(=O)/C=C/c4ccccc4)c2O)OC(C)(C)C=C3)c1O [rottlerin, 5,7-dihydroxy-2,2-dimethyl-6-(2,4,6-trihydroxy-3-methyl-5-acetylbenzyl)-8-cinnamoyl-I,2-chromene]
inhibition [1]: 51% | adverse effect, mortality, morbidity ([2]; 5 μg/g intraperitoneal every other day): no significant adverse effect | cellular infiltrate in the peribronchial and perivascular regions ([2]; HDM-exposed animals): significant reduction | airway resistance ([2]; HDM-sensitized mice, methacholine 25-50 mg/ml): marked decrease in their airway resistance | airway resistance ([2]; PBS-sensitized animals): no effect

— patent US20120184517A1, “TREATMENT OF DISEASES WITH ALTERED SMOOTH MUSCLE CONTRACTILITY” (priority 2009, published 2012)
